# Measured values as given in PubChem BioAssay (NCI).
#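 1) Cells in 96-well plates. 2) Compound, 48 h, 5 concentrations. 3) Linear interpolation between surrounding doses. 4) Unreached endpoint = highest concentration. Abbreviation: GI50, concentration required for 50% inhibition of growth. TGI marks complete inhibition of growth.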
# Tests used:
# Test in all cases: NCI-60 cell line screen, 48 h
# 786-0 renal = test system: 786-0 renal
# A549 NSCLC = test system: A549 NSCLC
# ACHN renal = test system: ACHN renal
# CAKI-1 renal = test system: CAKI-1 renal
# COLO 205 colon = test system: COLO 205 colon
# DU-145 prostate = test system: DU-145 prostate
# EKVX NSCLC = test system: EKVX NSCLC
# HCT-116 colon = test system: HCT-116 colon
# HCT-15 colon = test system: HCT-15 colon
# HL-60(TB) leukemia = test system: HL-60(TB) leukemia
# HOP-62 NSCLC = test system: HOP-62 NSCLC
# HS 578T breast = test system: HS 578T breast
# HT29 colon = test system: HT29 colon
# IGROV1 ovarian = test system: IGROV1 ovarian
# K-562 leukemia = test system: K-562 leukemia
# KM12 colon = test system: KM12 colon
# LOX IMVI melanoma = test system: LOX IMVI melanoma
# M14 melanoma = test system: M14 melanoma
# MALME-3M melanoma = test system: MALME-3M melanoma
# MCF7 breast = test system: MCF7 breast
# MDA-MB-231 breast = test system: MDA-MB-231 breast
# MDA-MB-435 = test system: MDA-MB-435
# MOLT-4 leukemia = test system: MOLT-4 leukemia
# NCI-H226 lung = test system: NCI-H226 lung
# NCI-H23 lung = test system: NCI-H23 lung
# NCI-H460 lung = test system: NCI-H460 lung
# NCI-H522 lung = test system: NCI-H522 lung
# NCI/ADR-RES ovarian = test system: NCI/ADR-RES ovarian
# OVCAR-3 ovarian = test system: OVCAR-3 ovarian
# OVCAR-4 ovarian = test system: OVCAR-4 ovarian
# OVCAR-5 ovarian = test system: OVCAR-5 ovarian
# OVCAR-8 ovarian = test system: OVCAR-8 ovarian
# PC-3 prostate = test system: PC-3 prostate
# RPMI-8226 leukemia = test system: RPMI-8226 leukemia
# RXF 393 renal = test system: RXF 393 renal
# SF-268 CNS = test system: SF-268 CNS
# SF-295 CNS = test system: SF-295 CNS
# SF-539 CNS = test system: SF-539 CNS
# SK-MEL-2 melanoma = test system: SK-MEL-2 melanoma
# SK-MEL-28 melanoma = test system: SK-MEL-28 melanoma
# SK-MEL-5 melanoma = test system: SK-MEL-5 melanoma
# SK-OV-3 ovarian = test system: SK-OV-3 ovarian
# SN12C renal = test system: SN12C renal
# SNB-19 CNS = test system: SNB-19 CNS
# SNB-75 CNS = test system: SNB-75 CNS
# SR leukemia = test system: SR leukemia
# SW-620 colon = test system: SW-620 colon
# T-47D breast = test system: T-47D breast
# TK-10 renal = test system: TK-10 renal
# U251 CNS = test system: U251 CNS
# UACC-257 melanoma = test system: UACC-257 melanoma
# UACC-62 melanoma = test system: UACC-62 melanoma
# UO-31 renal = test system: UO-31 renal
# A498 renal = test system: A498 renal
# HCC-2998 colon = test system: HCC-2998 colon
# HOP-92 NSCLC = test system: HOP-92 NSCLC
smiles,measurement,setting,value
C/C(=C\COP(=O)(O)OP(=O)(O)O)CCCOCc1ccccc1,TGI,786-0 renal,> 100 µM
same,TGI,A549 NSCLC,> 100 µM
same,TGI,ACHN renal,> 100 µM
same,TGI,CAKI-1 renal,> 100 µM
same,TGI,COLO 205 colon,> 100 µM
same,TGI,DU-145 prostate,> 100 µM
same,TGI,EKVX NSCLC,> 100 µM
same,TGI,HCT-116 colon,> 100 µM
same,TGI,HCT-15 colon,> 100 µM
same,TGI,HL-60(TB) leukemia,> 100 µM
same,TGI,HOP-62 NSCLC,> 100 µM
same,TGI,HS 578T breast,> 100 µM
same,TGI,HT29 colon,> 100 µM
same,TGI,IGROV1 ovarian,> 100 µM
same,TGI,K-562 leukemia,> 100 µM
same,TGI,KM12 colon,> 100 µM
same,TGI,LOX IMVI melanoma,> 100 µM
same,TGI,M14 melanoma,> 100 µM
same,TGI,MALME-3M melanoma,> 100 µM
same,TGI,MCF7 breast,> 100 µM
same,TGI,MDA-MB-231 breast,> 100 µM
same,TGI,MDA-MB-435,> 100 µM
same,TGI,MOLT-4 leukemia,> 100 µM
same,TGI,NCI-H226 lung,> 100 µM
same,TGI,NCI-H23 lung,> 100 µM
same,TGI,NCI-H460 lung,> 100 µM
same,TGI,NCI-H522 lung,> 100 µM
same,TGI,NCI/ADR-RES ovarian,> 100 µM
same,TGI,OVCAR-3 ovarian,> 100 µM
same,TGI,OVCAR-4 ovarian,> 100 µM
same,TGI,OVCAR-5 ovarian,> 100 µM
same,TGI,OVCAR-8 ovarian,> 100 µM
same,TGI,PC-3 prostate,> 100 µM
same,TGI,RPMI-8226 leukemia,> 100 µM
same,TGI,RXF 393 renal,> 100 µM
same,TGI,SF-268 CNS,> 100 µM
same,TGI,SF-295 CNS,> 100 µM
same,TGI,SF-539 CNS,> 100 µM
same,TGI,SK-MEL-2 melanoma,> 100 µM
same,TGI,SK-MEL-28 melanoma,> 100 µM
same,TGI,SK-MEL-5 melanoma,> 100 µM
same,TGI,SK-OV-3 ovarian,> 100 µM
same,TGI,SN12C renal,> 100 µM
same,TGI,SNB-19 CNS,> 100 µM
same,TGI,SNB-75 CNS,> 100 µM
same,TGI,SR leukemia,> 100 µM
same,TGI,SW-620 colon,> 100 µM
same,TGI,T-47D breast,> 100 µM
same,TGI,TK-10 renal,> 100 µM
same,TGI,U251 CNS,> 100 µM
same,TGI,UACC-257 melanoma,> 100 µM
same,TGI,UACC-62 melanoma,> 100 µM
same,TGI,UO-31 renal,> 100 µM
O=C(Nc1ccc(Cl)cc1)Nc1ccc(Cl)c(C(F)(F)F)c1,GI50,786-0 renal,2.75 µM
same,TGI,786-0 renal,10.7 µM
same,GI50,A498 renal,2.38 µM
same,TGI,A498 renal,6.26 µM
same,GI50,A549 NSCLC,3.39 µM
same,TGI,A549 NSCLC,15.8 µM
same,GI50,ACHN renal,3.04 µM
same,TGI,ACHN renal,12.1 µM
same,GI50,CAKI-1 renal,2.27 µM
same,TGI,CAKI-1 renal,8.84 µM
same,GI50,COLO 205 colon,1.63 µM
same,TGI,COLO 205 colon,3.01 µM
same,GI50,DU-145 prostate,3.66 µM
same,TGI,DU-145 prostate,12.4 µM
same,GI50,EKVX NSCLC,2.48 µM
same,TGI,EKVX NSCLC,11 µM
same,GI50,HCC-2998 colon,3.12 µM
same,TGI,HCC-2998 colon,8.81 µM
same,GI50,HCT-116 colon,1.95 µM
same,TGI,HCT-116 colon,5.33 µM
same,GI50,HCT-15 colon,2.65 µM
same,TGI,HCT-15 colon,11.6 µM
same,GI50,HL-60(TB) leukemia,1.74 µM
same,TGI,HL-60(TB) leukemia,3.91 µM
same,GI50,HOP-62 NSCLC,3 µM
same,TGI,HOP-62 NSCLC,11.3 µM
same,GI50,HOP-92 NSCLC,1.55 µM
same,TGI,HOP-92 NSCLC,5.03 µM
same,GI50,HS 578T breast,2.68 µM
same,TGI,HS 578T breast,8.31 µM
same,GI50,HT29 colon,2.86 µM
same,TGI,HT29 colon,10.7 µM
same,GI50,IGROV1 ovarian,4.01 µM
same,TGI,IGROV1 ovarian,16.2 µM
same,GI50,K-562 leukemia,1.06 µM
same,TGI,K-562 leukemia,2.95 µM
same,GI50,KM12 colon,2.21 µM
same,TGI,KM12 colon,6.56 µM
same,GI50,LOX IMVI melanoma,3.31 µM
same,TGI,LOX IMVI melanoma,11.6 µM
same,GI50,M14 melanoma,3.59 µM
same,TGI,M14 melanoma,12.3 µM
same,GI50,MCF7 breast,2.16 µM
same,TGI,MCF7 breast,7.85 µM
same,GI50,MDA-MB-231 breast,1.75 µM
same,TGI,MDA-MB-231 breast,3.91 µM
same,GI50,MDA-MB-435,2.45 µM
same,TGI,MDA-MB-435,8.13 µM
same,GI50,MOLT-4 leukemia,1.72 µM
same,TGI,MOLT-4 leukemia,4.4 µM
same,GI50,NCI-H23 lung,2.21 µM
same,TGI,NCI-H23 lung,11 µM
same,GI50,NCI-H460 lung,1.7 µM
same,TGI,NCI-H460 lung,6.44 µM
same,GI50,NCI-H522 lung,4.05 µM
same,TGI,NCI-H522 lung,29.1 µM
same,GI50,NCI/ADR-RES ovarian,3.07 µM
same,TGI,NCI/ADR-RES ovarian,10.5 µM
same,GI50,OVCAR-3 ovarian,1.86 µM
same,TGI,OVCAR-3 ovarian,7.76 µM
same,GI50,OVCAR-4 ovarian,2.33 µM
same,TGI,OVCAR-4 ovarian,11.4 µM
same,GI50,OVCAR-5 ovarian,4.52 µM
same,TGI,OVCAR-5 ovarian,14.9 µM
same,GI50,OVCAR-8 ovarian,4.04 µM
same,TGI,OVCAR-8 ovarian,18.8 µM
same,GI50,PC-3 prostate,2.35 µM
same,TGI,PC-3 prostate,10.8 µM
same,GI50,SF-268 CNS,3.54 µM
same,TGI,SF-268 CNS,12.2 µM
same,GI50,SF-295 CNS,1.97 µM
same,TGI,SF-295 CNS,8.87 µM
same,GI50,SF-539 CNS,2.61 µM
same,TGI,SF-539 CNS,10.1 µM
same,GI50,SK-MEL-2 melanoma,3.25 µM
same,TGI,SK-MEL-2 melanoma,10 µM
same,GI50,SK-MEL-28 melanoma,3.51 µM
same,TGI,SK-MEL-28 melanoma,11.9 µM
same,GI50,SK-MEL-5 melanoma,1.55 µM
same,TGI,SK-MEL-5 melanoma,2.99 µM
same,GI50,SK-OV-3 ovarian,2.37 µM
same,TGI,SK-OV-3 ovarian,6.8 µM
same,GI50,SN12C renal,2.29 µM
same,TGI,SN12C renal,10.5 µM
same,GI50,SNB-19 CNS,3.21 µM
same,TGI,SNB-19 CNS,12.6 µM
same,GI50,SNB-75 CNS,1.97 µM
same,TGI,SNB-75 CNS,7.73 µM
same,GI50,SW-620 colon,2.93 µM
same,TGI,SW-620 colon,9.66 µM
same,GI50,T-47D breast,1.22 µM
same,TGI,T-47D breast,5.49 µM
same,GI50,TK-10 renal,4.25 µM
same,TGI,TK-10 renal,19.2 µM
same,GI50,U251 CNS,2.8 µM
same,TGI,U251 CNS,11.4 µM
same,GI50,UACC-257 melanoma,3.44 µM
same,TGI,UACC-257 melanoma,11.8 µM
same,GI50,UACC-62 melanoma,2.71 µM
same,TGI,UACC-62 melanoma,14.7 µM
same,GI50,UO-31 renal,2.54 µM
same,TGI,UO-31 renal,10.2 µM
